Measured values from patent US20130236441A1, “METHODS OF TREATING AND PREVENTING THROMBOTIC DISEASES USING ASK1 INHIBITORS” (University of Delaware, priority 2010, published 2013).

Columns and labels:
[1] = test system: WT or Ask1−/− mouse platelets; assay: 14C-serotonin release (dense granule secretion) from agonist-stimulated mouse platelets; format: cell-based; details: aspirin pretreatment
Procedure: (A) ^14C-serotonin-labeled platelets (2.5×10^8 per ml) from Ask1^+/+ and Ask1^−/− mice were stimulated with various concentration of thrombin for 5 min, and the ^14C-serotonin release was determined using a liquid scintillation counter. (B) Platelets from Ask1^+/+ and Ask1^−/− mice were stimulated with various concentrations of thrombin for 5 min and P-selectin exposure on the platelet surface was determined using flow cytometry. Granular secretion was assessed using WT or Ask1−/− mouse platelets in response to low and high dose of agonists such as thrombin (FIG. 7A) and thrombin/PAR4-peptide (AYPGKF) (FIG. 7B). Dense granule secretion was analyzed by measuring ^14C-serotonin release (FIG. 7A). α-granule secretion was assessed by P-selectin exposure using flow cytometry (FIG. 7B). Ask1 regulated a significant portion of dense granule secretion induced by high dose of thrombin (FIG. 7A). Similar results were obtained when P-selectin exposure was assessed as a measure of α-granule secretion (FIG. 7B).

ASK1 = ASK1 T838 phosphorylation in thrombin-stimulated washed human platelets (Western blot); format: cell-based; details: thrombin 0.05 U-1 U/ml
Procedure: Washed human platelets (2×10^8) were stimulated with thrombin (1 U/ml) for various time periods as indicated, and the lysates were Western blotted using phospho-specific antibodies against (A) ASK1, (B) MKK3 and P38, and (C) MKK4, and reprobed with corresponding antibodies against total proteins (Cell Signaling Technology, Inc.) to ensure relatively equal loading of ASK1, MKK3, P38 or MKK4 protein in each of its respective lanes.
A study was carried out to determine whether ASK1 was activated during agonist-induced platelet stimulation. A well-characterized antibody specific to the phosphorylated threonine 838 (T838) of ASK1 was used. […] Upon stimulation with as low as 0.05 U-1 U/ml of thrombin, ASK1 was activated rapidly and transiently as evidenced by phosphorylation of T838 (FIG. 3A). In a low percentage SDS-PAGE, ASK1 appeared as a doublet.

Row | Compound | amount of serotonin released ([1]; Ask1−/− platelets) | amount of serotonin released ([1]; WT platelets) | ASK1 activation (phosphorylation of T838) (ASK1)
1 | CC(=O)Oc1ccccc1C(=O)O [aspirin] | no effect | reduced the amount of serotonin released to that of Ask1−/− platelets | –
2 | thrombin | – | – | dose-dependently activated
